In patent US4400199A, “Thiolcarbamate compounds and their use as herbicides” (priority 1981, dated 1983):

Columns and labels:
[1] = tested on: barnyard grass (Echinochloa crus-galli); test: Experiment 1: herbicidal effects against barnyard grass (pot test, emulsifiable concentrate); type: in vivo; settings: 3 leaf-stage of barnyard grass; 300 g/10a.; 25 days
[2] = tested on: Hotarui (Scirpus juncoides); test: Experiment 2: herbicidal effects against Hotarui (pot test, granules); type: in vivo; settings: 25 days
barnyard grass = test: Experiment 2: herbicidal effects against barnyard grass (pot test, granules); type: in vivo, Echinochloa crus-galli; settings: 2.5 leaf-stage, 25 days
broad-leaf weeds = test: Experiment 2: herbicidal effects against broad-leaf weeds (pot test, granules); type: in vivo; settings: 25 days
[3] = tested on: Mizugayatsuri (Cyperus serotinus); test: Experiment 2: herbicidal effects against Mizugayatsuri (pot test, granules); type: in vivo; settings: 25 days

**Q.** `CSC(=O)N1CC(C)CCC(C)C1` (stereo not shown) [Compound 14, reference compound] was tested. Which “herbicidal activity (barnyard grass)” value [1] did it give?
**A.** 3 (50 to 69%)

**Q.** How did the “herbicidal activity (barnyard grass)” value [1] turn out when `CCSC(=O)N1CC(C)CCC(C)C1` (stereo not shown) [Compound 15, reference compound] was run?
**A.** 3 (50 to 69%)

**Q.** With `CCCSC(=O)N1CC(C)CCC(C)C1` (stereo not shown) [Compound 16, reference compound] as the molecule, how does the “herbicidal activity (barnyard grass)” value [1] read?
**A.** 3 (50 to 69%)

**Q.** For `CCCCSC(=O)N1CC(C)CCC(C)C1` (stereo not shown) [Compound 17, reference compound], which “herbicidal activity (barnyard grass)” value [1] is on record?
**A.** 3 (50 to 69%)

**Q.** How did the “herbicidal activity (barnyard grass)” value [1] turn out when `CCCCCCCCCCSC(=O)N1CC(C)CCC(C)C1` (stereo not shown) [Compound 19, reference compound] was run?
**A.** 1 (10 to 29%)

**Q.** Which “Herbicidal activity Hotarui (Scirpus juncoides)” value ([2]; 150 g/10a.) does the source give for `CC1CCC(C)CN(C(=O)SCCCCCCCl)C1` (stereo not drawn) [Compound, S-(6-chlorohexyl)-3,6-dimethyl-hexahydro-1H-azepine-1-carbothioate] here?
**A.** 3 (50 to 69%)

**Q.** And the “Herbicidal activity Hotarui (Scirpus juncoides)” value ([2]; 300 g/10a.)?
**A.** 5 (more than 90%)

**Q.** What about the “herbicidal activity (barnyard grass)” value (barnyard grass; 150 g/10a.) of the same molecule?
**A.** 5 (more than 90%)

**Q.** And the “herbicidal activity (barnyard grass)” value (barnyard grass; 300 g/10a.)?
**A.** 5 (more than 90%)

**Q.** And the “Herbicidal activity broad-leaf weeds” value (broad-leaf weeds; 150 g/10a.)?
**A.** 3 (50 to 69%)

**Q.** And the “Herbicidal activity broad-leaf weeds” value (broad-leaf weeds; 300 g/10a.)?
**A.** 5 (more than 90%)

**Q.** What about the “Herbicidal activity Mizugayatsuri (Cyperus serotinus)” value ([3]; 150 g/10a.) of the same molecule?
**A.** 2 (30 to 49%)

**Q.** What about the “Herbicidal activity Mizugayatsuri (Cyperus serotinus)” value ([3]; 300 g/10a.) of the same molecule?
**A.** 4 (70 to 89%)
